Legend:
Test in all cases: relative viability (nuclei count vs DMSO), 5 days (fraction); higher = more cells survive
NCI-H1993 = tested on: NCI-H1993
Procedure, shortened: (§1)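 Relative viability is defined as nuclei in treated wells over nuclei in vehicle wells. Duplicate plates were run and medians reported. Lung cancer cell lines in 1536-well plates were dosed by pin tool one day after seeding, with one drug or with a fixed anchor-drug dose plus five library-drug doses (not always all listed) in √10 steps, and nuclei were counted after 5 days.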

NCI-H2023 = tested on: NCI-H2023
Procedure, shortened: as §1

LCLC-103H = tested on: LCLC-103H
Procedure, shortened: as §1

BEN = tested on: BEN
Procedure, shortened: as §1

NCI-H647 = tested on: NCI-H647
Procedure, shortened: as §1

LOU-NH91 = tested on: LOU-NH91
Procedure, shortened: as §1

NCI-H441 = tested on: NCI-H441
Procedure, shortened: as §1

NCI-H2347 = tested on: NCI-H2347
Procedure, shortened: as §1

NCI-H3122 = tested on: NCI-H3122
Procedure, shortened: as §1

NCI-H522 = tested on: NCI-H522
Procedure, shortened: as §1

NCI-H2126 = tested on: NCI-H2126
Procedure, shortened: as §1

HARA = tested on: HARA
Procedure, shortened: as §1

HCC-44 = tested on: HCC-44
Procedure, shortened: as §1

NCI-H727 = tested on: NCI-H727
Procedure, shortened: as §1

201T = tested on: 201T
Procedure, shortened: as §1

EMC-BAC-2 = tested on: EMC-BAC-2
Procedure, shortened: as §1

NCI-H650 = tested on: NCI-H650
Procedure, shortened: as §1

NCI-H838 = tested on: NCI-H838
Procedure, shortened: as §1

NCI-H2087 = tested on: NCI-H2087
Procedure, shortened: as §1

NCI-H23 = tested on: NCI-H23
Procedure, shortened: as §1

NCI-H1395 = tested on: NCI-H1395
Procedure, shortened: as §1

**Q.** Which relative viability (NCI-H1993; first compound 0.01 µM) does the source give for O=c1cc(N2CCOCC2)oc2c(-c3cccc4c3sc3ccccc34)cccc12 + CC(=O)c1c(C)c2cnc(Nc3ccc(N4CCNCC4)cn3)nc2n(C2CCCC2)c1=O [Palbociclib] (partner 0.5 µM) here?
**A.** 0.738

**Q.** And the relative viability (NCI-H1993; first compound 0.03162 µM)?
**A.** 0.6

**Q.** What about the relative viability (NCI-H1993; first compound 0.1 µM) of the same molecule?
**A.** 0.658

**Q.** What about the relative viability (NCI-H1993; first compound 0.3162 µM) of the same molecule?
**A.** 0.64

**Q.** What about the relative viability (NCI-H1993; first compound 1 µM) of the same molecule?
**A.** 0.545

**Q.** And the relative viability (NCI-H2023; first compound 0.01 µM)?
**A.** 0.436

**Q.** What about the relative viability (NCI-H2023; first compound 0.03162 µM) of the same molecule?
**A.** 0.325

**Q.** And the relative viability (NCI-H2023; first compound 0.1 µM)?
**A.** 0.462

**Q.** And the relative viability (NCI-H2023; first compound 0.3162 µM)?
**A.** 0.337

**Q.** And the relative viability (NCI-H2023; first compound 1 µM)?
**A.** 0.346

**Q.** What about the relative viability (LCLC-103H; first compound 0.01 µM) of the same molecule?
**A.** 0.446

**Q.** What about the relative viability (LCLC-103H; first compound 0.03162 µM) of the same molecule?
**A.** 0.439

**Q.** And the relative viability (LCLC-103H; first compound 0.1 µM)?
**A.** 0.513

**Q.** And the relative viability (LCLC-103H; first compound 0.3162 µM)?
**A.** 0.514

**Q.** And the relative viability (LCLC-103H; first compound 1 µM)?
**A.** 0.43

**Q.** And the relative viability (BEN; first compound 0.01 µM)?
**A.** 0.427

**Q.** What about the relative viability (BEN; first compound 0.03162 µM) of the same molecule?
**A.** 0.476

**Q.** And the relative viability (BEN; first compound 0.1 µM)?
**A.** 0.476

**Q.** And the relative viability (BEN; first compound 0.3162 µM)?
**A.** 0.514

**Q.** And the relative viability (BEN; first compound 1 µM)?
**A.** 0.506

**Q.** And the relative viability (NCI-H647; first compound 0.01 µM)?
**A.** 0.392

**Q.** What about the relative viability (NCI-H647; first compound 0.03162 µM) of the same molecule?
**A.** 0.409

**Q.** And the relative viability (NCI-H647; first compound 0.1 µM)?
**A.** 0.387

**Q.** And the relative viability (NCI-H647; first compound 0.3162 µM)?
**A.** 0.364

**Q.** What about the relative viability (NCI-H647; first compound 1 µM) of the same molecule?
**A.** 0.314

**Q.** And the relative viability (LOU-NH91; first compound 0.01 µM)?
**A.** 0.525

**Q.** And the relative viability (LOU-NH91; first compound 0.03162 µM)?
**A.** 0.527

**Q.** What about the relative viability (LOU-NH91; first compound 0.1 µM) of the same molecule?
**A.** 0.522

**Q.** What about the relative viability (LOU-NH91; first compound 0.3162 µM) of the same molecule?
**A.** 0.537

**Q.** What about the relative viability (LOU-NH91; first compound 1 µM) of the same molecule?
**A.** 0.574

**Q.** And the relative viability (NCI-H441; first compound 0.01 µM)?
**A.** 0.21

**Q.** What about the relative viability (NCI-H441; first compound 0.03162 µM) of the same molecule?
**A.** 0.217

**Q.** And the relative viability (NCI-H441; first compound 0.1 µM)?
**A.** 0.207

**Q.** And the relative viability (NCI-H441; first compound 0.3162 µM)?
**A.** 0.233

**Q.** And the relative viability (NCI-H441; first compound 1 µM)?
**A.** 0.222

**Q.** And the relative viability (NCI-H2347; first compound 0.01 µM)?
**A.** 0.365

**Q.** And the relative viability (NCI-H2347; first compound 0.03162 µM)?
**A.** 0.414

**Q.** What about the relative viability (NCI-H2347; first compound 0.1 µM) of the same molecule?
**A.** 0.445

**Q.** What about the relative viability (NCI-H2347; first compound 0.3162 µM) of the same molecule?
**A.** 0.424

**Q.** What about the relative viability (NCI-H2347; first compound 1 µM) of the same molecule?
**A.** 0.39

**Q.** And the relative viability (NCI-H3122; first compound 0.01 µM)?
**A.** 0.171

**Q.** And the relative viability (NCI-H3122; first compound 0.03162 µM)?
**A.** 0.183

**Q.** And the relative viability (NCI-H3122; first compound 0.1 µM)?
**A.** 0.167

**Q.** What about the relative viability (NCI-H3122; first compound 0.3162 µM) of the same molecule?
**A.** 0.177

**Q.** And the relative viability (NCI-H3122; first compound 1 µM)?
**A.** 0.161

**Q.** What about the relative viability (NCI-H522; first compound 0.01 µM) of the same molecule?
**A.** 0.887

**Q.** And the relative viability (NCI-H522; first compound 0.03162 µM)?
**A.** 1.25

**Q.** And the relative viability (NCI-H522; first compound 0.1 µM)?
**A.** 0.831

**Q.** And the relative viability (NCI-H522; first compound 0.3162 µM)?
**A.** 0.948

**Q.** What about the relative viability (NCI-H522; first compound 1 µM) of the same molecule?
**A.** 0.977

**Q.** What about the relative viability (NCI-H2126; first compound 0.01 µM) of the same molecule?
**A.** 0.349

**Q.** What about the relative viability (NCI-H2126; first compound 0.03162 µM) of the same molecule?
**A.** 0.339

**Q.** What about the relative viability (NCI-H2126; first compound 0.1 µM) of the same molecule?
**A.** 0.318

**Q.** What about the relative viability (NCI-H2126; first compound 0.3162 µM) of the same molecule?
**A.** 0.331

**Q.** What about the relative viability (NCI-H2126; first compound 1 µM) of the same molecule?
**A.** 0.345

**Q.** What about the relative viability (HARA; first compound 0.01 µM) of the same molecule?
**A.** 0.253

**Q.** What about the relative viability (HARA; first compound 0.03162 µM) of the same molecule?
**A.** 0.252

**Q.** What about the relative viability (HARA; first compound 0.1 µM) of the same molecule?
**A.** 0.201

**Q.** What about the relative viability (HARA; first compound 0.3162 µM) of the same molecule?
**A.** 0.278

**Q.** And the relative viability (HARA; first compound 1 µM)?
**A.** 0.307

**Q.** And the relative viability (HCC-44; first compound 0.01 µM)?
**A.** 1.01

**Q.** What about the relative viability (HCC-44; first compound 0.03162 µM) of the same molecule?
**A.** 1.02

**Q.** And the relative viability (HCC-44; first compound 0.1 µM)?
**A.** 0.955

**Q.** What about the relative viability (HCC-44; first compound 0.3162 µM) of the same molecule?
**A.** 0.991

**Q.** What about the relative viability (HCC-44; first compound 1 µM) of the same molecule?
**A.** 1.02

**Q.** And the relative viability (NCI-H727; first compound 0.01 µM)?
**A.** 0.66

**Q.** And the relative viability (NCI-H727; first compound 0.03162 µM)?
**A.** 0.6

**Q.** What about the relative viability (NCI-H727; first compound 0.1 µM) of the same molecule?
**A.** 0.624

**Q.** What about the relative viability (NCI-H727; first compound 0.3162 µM) of the same molecule?
**A.** 0.699

**Q.** And the relative viability (NCI-H727; first compound 1 µM)?
**A.** 0.737

**Q.** What about the relative viability (201T; first compound 0.01 µM) of the same molecule?
**A.** 0.346

**Q.** What about the relative viability (201T; first compound 0.03162 µM) of the same molecule?
**A.** 0.356

**Q.** And the relative viability (201T; first compound 0.1 µM)?
**A.** 0.356

**Q.** What about the relative viability (201T; first compound 0.3162 µM) of the same molecule?
**A.** 0.342

**Q.** What about the relative viability (201T; first compound 1 µM) of the same molecule?
**A.** 0.353

**Q.** And the relative viability (EMC-BAC-2; first compound 0.01 µM)?
**A.** 0.525

**Q.** And the relative viability (EMC-BAC-2; first compound 0.03162 µM)?
**A.** 0.541

**Q.** And the relative viability (EMC-BAC-2; first compound 0.1 µM)?
**A.** 0.55

**Q.** What about the relative viability (EMC-BAC-2; first compound 0.3162 µM) of the same molecule?
**A.** 0.51

**Q.** What about the relative viability (EMC-BAC-2; first compound 1 µM) of the same molecule?
**A.** 0.497

**Q.** What about the relative viability (NCI-H650; first compound 0.01 µM) of the same molecule?
**A.** 0.348

**Q.** And the relative viability (NCI-H650; first compound 0.03162 µM)?
**A.** 0.383

**Q.** And the relative viability (NCI-H650; first compound 0.3162 µM)?
**A.** 0.356

**Q.** What about the relative viability (NCI-H650; first compound 1 µM) of the same molecule?
**A.** 0.347

**Q.** What about the relative viability (NCI-H838; first compound 0.01 µM) of the same molecule?
**A.** 0.26

**Q.** And the relative viability (NCI-H838; first compound 0.03162 µM)?
**A.** 0.182

**Q.** What about the relative viability (NCI-H838; first compound 0.1 µM) of the same molecule?
**A.** 0.222

**Q.** What about the relative viability (NCI-H838; first compound 0.3162 µM) of the same molecule?
**A.** 0.228

**Q.** What about the relative viability (NCI-H838; first compound 1 µM) of the same molecule?
**A.** 0.202

**Q.** And the relative viability (NCI-H2087; first compound 0.01 µM)?
**A.** 0.218

**Q.** What about the relative viability (NCI-H2087; first compound 0.03162 µM) of the same molecule?
**A.** 0.245

**Q.** What about the relative viability (NCI-H2087; first compound 0.1 µM) of the same molecule?
**A.** 0.221

**Q.** And the relative viability (NCI-H2087; first compound 0.3162 µM)?
**A.** 0.229

**Q.** And the relative viability (NCI-H2087; first compound 1 µM)?
**A.** 0.217

**Q.** And the relative viability (NCI-H23; first compound 0.01 µM)?
**A.** 0.464

**Q.** What about the relative viability (NCI-H23; first compound 0.03162 µM) of the same molecule?
**A.** 0.524

**Q.** What about the relative viability (NCI-H23; first compound 0.3162 µM) of the same molecule?
**A.** 0.485

**Q.** What about the relative viability (NCI-H23; first compound 1 µM) of the same molecule?
**A.** 0.473

**Q.** What about the relative viability (NCI-H1395; first compound 0.03162 µM) of the same molecule?
**A.** 0.547

**Q.** And the relative viability (NCI-H1395; first compound 0.1 µM)?
**A.** 0.634

**Q.** And the relative viability (NCI-H1395; first compound 0.3162 µM)?
**A.** 0.631

**Q.** What about the relative viability (NCI-H1395; first compound 1 µM) of the same molecule?
**A.** 0.637

— the supplement of paper PMC10307832
